# Results as given in PMC7026418, “The kinase polypharmacology landscape of clinical PARP inhibitors” (Scientific Reports, 2020).
# Like-named read-outs stand apart in the source and are kept apart here.
# Experiments:
# Test in all cases: biochemical
# Set-up in all cases: DiscoveRx KINOMEscan active site-directed competition binding; percent of control kinase bound to immobilised ligand
# [1] = target: T1, PKMYT1 (Homo sapiens, UniProt Q99640)
# T1 sequence (Q99640 1-499): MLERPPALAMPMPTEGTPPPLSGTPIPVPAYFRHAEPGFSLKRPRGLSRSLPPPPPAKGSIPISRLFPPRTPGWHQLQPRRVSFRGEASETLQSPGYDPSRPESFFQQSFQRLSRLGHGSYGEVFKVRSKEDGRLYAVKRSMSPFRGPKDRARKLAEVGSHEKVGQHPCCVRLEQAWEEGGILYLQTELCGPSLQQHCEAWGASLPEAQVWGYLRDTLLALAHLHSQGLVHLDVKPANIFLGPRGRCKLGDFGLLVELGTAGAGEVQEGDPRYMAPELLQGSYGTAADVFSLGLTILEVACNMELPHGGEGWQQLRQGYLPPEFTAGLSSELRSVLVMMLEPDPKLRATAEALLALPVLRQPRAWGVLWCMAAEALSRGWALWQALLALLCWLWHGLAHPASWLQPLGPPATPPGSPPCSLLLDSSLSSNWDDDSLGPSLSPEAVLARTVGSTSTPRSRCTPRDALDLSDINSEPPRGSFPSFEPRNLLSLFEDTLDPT
# [2] = target: T2, ABL1(H396P)-phosphorylated (Homo sapiens, UniProt P00519, H396P)
# T2 construct: phosphorylated
# [3] = target: T3, TAK1 (Homo sapiens, UniProt O43318)
# T3 construct: gene MAP3K7
# T3 sequence (O43318 1-606): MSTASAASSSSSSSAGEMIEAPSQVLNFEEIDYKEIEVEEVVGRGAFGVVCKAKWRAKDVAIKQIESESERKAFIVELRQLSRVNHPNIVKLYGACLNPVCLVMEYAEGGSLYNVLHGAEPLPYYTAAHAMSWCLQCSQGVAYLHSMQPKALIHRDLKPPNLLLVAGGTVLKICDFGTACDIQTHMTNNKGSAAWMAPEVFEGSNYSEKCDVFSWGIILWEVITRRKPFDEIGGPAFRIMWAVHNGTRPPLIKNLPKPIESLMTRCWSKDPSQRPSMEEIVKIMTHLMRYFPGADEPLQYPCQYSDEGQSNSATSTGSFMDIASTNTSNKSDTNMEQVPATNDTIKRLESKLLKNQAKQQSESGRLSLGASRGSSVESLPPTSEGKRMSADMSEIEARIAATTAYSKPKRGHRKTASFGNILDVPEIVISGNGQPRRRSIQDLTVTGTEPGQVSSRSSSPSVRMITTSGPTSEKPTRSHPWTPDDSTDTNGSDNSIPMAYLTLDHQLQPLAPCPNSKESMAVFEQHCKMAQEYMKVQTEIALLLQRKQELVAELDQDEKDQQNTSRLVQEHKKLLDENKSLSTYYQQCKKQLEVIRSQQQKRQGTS
# [4] = target: PIK3CA(H1047Y) (Homo sapiens, UniProt P42336, H1047Y)
# Chain of PIK3CA(H1047Y) (P42336 whole entry H1047Y): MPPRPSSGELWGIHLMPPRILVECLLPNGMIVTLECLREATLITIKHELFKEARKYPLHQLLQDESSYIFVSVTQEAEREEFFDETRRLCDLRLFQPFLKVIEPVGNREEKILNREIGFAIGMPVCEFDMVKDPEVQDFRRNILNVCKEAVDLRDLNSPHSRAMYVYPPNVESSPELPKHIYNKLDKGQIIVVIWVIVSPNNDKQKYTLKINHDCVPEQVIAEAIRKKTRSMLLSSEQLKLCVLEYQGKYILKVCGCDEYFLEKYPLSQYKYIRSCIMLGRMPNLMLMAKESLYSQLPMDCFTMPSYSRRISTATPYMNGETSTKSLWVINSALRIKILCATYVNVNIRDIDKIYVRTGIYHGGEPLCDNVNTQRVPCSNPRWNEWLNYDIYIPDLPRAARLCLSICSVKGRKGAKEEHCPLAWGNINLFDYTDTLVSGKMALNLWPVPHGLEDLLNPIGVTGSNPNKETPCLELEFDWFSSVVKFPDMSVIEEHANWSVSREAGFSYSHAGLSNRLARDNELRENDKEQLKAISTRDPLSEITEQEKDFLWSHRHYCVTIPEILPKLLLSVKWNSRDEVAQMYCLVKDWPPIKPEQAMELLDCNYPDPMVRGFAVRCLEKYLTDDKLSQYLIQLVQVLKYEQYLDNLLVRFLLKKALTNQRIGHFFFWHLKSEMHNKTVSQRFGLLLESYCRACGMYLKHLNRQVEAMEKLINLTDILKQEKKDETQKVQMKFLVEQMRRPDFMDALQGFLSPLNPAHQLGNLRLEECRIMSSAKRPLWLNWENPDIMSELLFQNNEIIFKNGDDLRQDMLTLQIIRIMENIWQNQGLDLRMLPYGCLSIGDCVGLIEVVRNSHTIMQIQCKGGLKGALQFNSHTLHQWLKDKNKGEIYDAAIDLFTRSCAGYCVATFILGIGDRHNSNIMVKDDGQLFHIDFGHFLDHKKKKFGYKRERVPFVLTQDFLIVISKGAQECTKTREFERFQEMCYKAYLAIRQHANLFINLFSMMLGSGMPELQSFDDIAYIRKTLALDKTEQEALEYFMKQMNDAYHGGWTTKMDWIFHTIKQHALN
# [5] = target: KIT(D816H) (Homo sapiens, UniProt P10721, D816H)
# Chain of KIT(D816H) (P10721 whole entry D816H): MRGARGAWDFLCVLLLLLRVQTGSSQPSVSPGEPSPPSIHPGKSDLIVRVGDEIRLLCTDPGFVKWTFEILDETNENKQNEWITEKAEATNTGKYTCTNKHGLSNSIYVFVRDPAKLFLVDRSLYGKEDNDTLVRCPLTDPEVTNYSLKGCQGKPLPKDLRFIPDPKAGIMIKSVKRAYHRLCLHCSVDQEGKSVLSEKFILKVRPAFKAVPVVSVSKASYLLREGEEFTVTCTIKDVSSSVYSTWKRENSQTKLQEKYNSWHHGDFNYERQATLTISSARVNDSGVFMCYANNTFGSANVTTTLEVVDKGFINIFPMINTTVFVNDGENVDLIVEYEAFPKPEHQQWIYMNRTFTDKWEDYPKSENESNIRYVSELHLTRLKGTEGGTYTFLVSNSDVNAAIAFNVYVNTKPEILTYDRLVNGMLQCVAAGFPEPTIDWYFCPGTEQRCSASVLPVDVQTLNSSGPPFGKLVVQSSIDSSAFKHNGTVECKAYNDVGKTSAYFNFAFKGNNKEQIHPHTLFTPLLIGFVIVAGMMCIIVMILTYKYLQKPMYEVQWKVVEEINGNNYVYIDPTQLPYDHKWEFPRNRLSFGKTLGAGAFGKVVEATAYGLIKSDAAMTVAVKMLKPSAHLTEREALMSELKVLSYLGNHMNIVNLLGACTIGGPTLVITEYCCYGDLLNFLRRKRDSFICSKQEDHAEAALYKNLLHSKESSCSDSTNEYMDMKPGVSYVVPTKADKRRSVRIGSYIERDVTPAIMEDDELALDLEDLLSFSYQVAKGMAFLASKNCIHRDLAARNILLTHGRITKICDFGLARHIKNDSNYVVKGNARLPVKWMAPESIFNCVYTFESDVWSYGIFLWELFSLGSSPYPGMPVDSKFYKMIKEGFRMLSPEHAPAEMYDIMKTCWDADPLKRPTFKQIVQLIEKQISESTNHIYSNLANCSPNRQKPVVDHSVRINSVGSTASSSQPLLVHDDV
# [6] = target: EGFR(L858R) (Homo sapiens, UniProt P00533, L858R)
# Chain of EGFR(L858R) (P00533 whole entry L858R): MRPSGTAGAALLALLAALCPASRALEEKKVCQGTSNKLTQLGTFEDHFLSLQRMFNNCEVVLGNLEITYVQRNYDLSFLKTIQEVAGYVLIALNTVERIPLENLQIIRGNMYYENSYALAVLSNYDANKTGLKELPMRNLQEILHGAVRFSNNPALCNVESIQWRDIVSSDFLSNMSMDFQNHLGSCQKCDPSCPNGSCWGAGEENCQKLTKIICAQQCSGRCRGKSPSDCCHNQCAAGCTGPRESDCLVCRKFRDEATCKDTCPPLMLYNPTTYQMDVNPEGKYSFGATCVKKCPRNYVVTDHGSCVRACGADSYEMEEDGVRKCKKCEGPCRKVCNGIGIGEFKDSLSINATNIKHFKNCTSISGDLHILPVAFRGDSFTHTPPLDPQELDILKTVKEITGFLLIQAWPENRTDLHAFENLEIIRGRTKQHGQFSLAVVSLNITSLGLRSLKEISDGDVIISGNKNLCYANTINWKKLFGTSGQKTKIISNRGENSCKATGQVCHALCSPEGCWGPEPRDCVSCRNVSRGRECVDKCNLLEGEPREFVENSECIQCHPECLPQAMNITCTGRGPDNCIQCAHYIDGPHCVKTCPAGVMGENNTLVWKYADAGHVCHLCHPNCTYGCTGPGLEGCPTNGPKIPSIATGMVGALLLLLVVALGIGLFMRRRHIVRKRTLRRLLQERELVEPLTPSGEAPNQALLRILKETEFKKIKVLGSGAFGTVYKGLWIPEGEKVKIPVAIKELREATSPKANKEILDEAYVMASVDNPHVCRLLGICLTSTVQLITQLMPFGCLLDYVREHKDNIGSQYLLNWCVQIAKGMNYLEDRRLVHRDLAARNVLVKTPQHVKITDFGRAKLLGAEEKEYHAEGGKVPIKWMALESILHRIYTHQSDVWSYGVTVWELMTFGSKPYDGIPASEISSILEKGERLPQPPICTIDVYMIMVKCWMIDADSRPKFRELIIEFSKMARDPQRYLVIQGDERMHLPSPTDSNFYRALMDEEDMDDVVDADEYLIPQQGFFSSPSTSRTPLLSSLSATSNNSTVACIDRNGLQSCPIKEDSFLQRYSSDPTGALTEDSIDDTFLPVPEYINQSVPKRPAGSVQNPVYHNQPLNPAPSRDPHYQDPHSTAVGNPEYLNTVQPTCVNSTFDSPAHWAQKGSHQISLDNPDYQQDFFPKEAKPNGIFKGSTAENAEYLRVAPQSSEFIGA
# [7] = target: CLK4 (Homo sapiens, UniProt Q9HAZ1)
# Chain of CLK4 (Q9HAZ1 whole entry): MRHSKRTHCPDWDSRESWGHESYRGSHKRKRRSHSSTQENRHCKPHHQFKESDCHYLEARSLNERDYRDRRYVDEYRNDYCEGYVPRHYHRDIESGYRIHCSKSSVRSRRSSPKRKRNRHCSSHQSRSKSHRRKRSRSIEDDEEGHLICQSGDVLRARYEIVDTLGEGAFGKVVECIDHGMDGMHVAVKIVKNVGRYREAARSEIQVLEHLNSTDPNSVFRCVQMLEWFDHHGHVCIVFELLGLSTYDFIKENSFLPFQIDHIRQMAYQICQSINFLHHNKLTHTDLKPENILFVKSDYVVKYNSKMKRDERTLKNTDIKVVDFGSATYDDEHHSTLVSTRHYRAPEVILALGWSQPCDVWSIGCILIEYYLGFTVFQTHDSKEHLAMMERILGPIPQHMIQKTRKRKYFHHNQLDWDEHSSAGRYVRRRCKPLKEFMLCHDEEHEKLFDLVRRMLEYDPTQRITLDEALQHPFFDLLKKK
# [8] = target: T4, ABL1(F317I)-phosphorylated (Homo sapiens, UniProt P00519, F317I)
# T4 construct: phosphorylated
# [9] = read-out: Niraparib (MK-4827) / %Ctrl @ 10000nM
# [10] = read-out: Olaparib / %Ctrl @ 10000nM
# [11] = read-out: Rucaparib / %Ctrl @ 10000nM, binding competition, % of control
# [12] = read-out: Talazoparib (BMN 673) / %Ctrl @ 10000nM
structure (smiles),measurement,setting,value
NC(=O)c1cccc2cn(-c3ccc([C@@H]4CCCNC4)cc3)nc12 [Niraparib],percent of control binding at 10 µM,[1]; [9],93%
same,percent of control binding at 10 µM,[2]; [9],58%
same,percent of control binding at 10 µM,[3]; [9],38%
same,percent of control binding at 10 µM,[4]; [9],66%
same,percent of control binding at 10 µM,[5]; [9],94%
same,percent of control binding at 10 µM,[6]; [9],70%
same,percent of control binding at 10 µM,[7]; [9],52%
same,percent of control binding at 10 µM,[8]; [9],89%
O=C(c1cc(Cc2n[nH]c(=O)c3ccccc23)ccc1F)N1CCN(C(=O)C2CC2)CC1 [Olaparib],percent of control binding at 10 µM,[1]; [10],100%
same,percent of control binding at 10 µM,[2]; [10],83%
same,percent of control binding at 10 µM,[3]; [10],77%
same,percent of control binding at 10 µM,[4]; [10],100%
same,percent of control binding at 10 µM,[5]; [10],96%
same,percent of control binding at 10 µM,[6]; [10],92%
same,percent of control binding at 10 µM,[7]; [10],92%
same,percent of control binding at 10 µM,[8]; [10],86%
CNCc1ccc(-c2[nH]c3cc(F)cc4c3c2CCNC4=O)cc1 [Rucaparib],percent of control binding at 10 µM,[1]; [11],100%
same,percent of control binding at 10 µM,[2]; [11],80%
same,percent of control binding at 10 µM,[3]; [11],38%
same,percent of control binding at 10 µM,[4]; [11],75%
same,percent of control binding at 10 µM,[5]; [11],82%
same,percent of control binding at 10 µM,[6]; [11],96%
same,percent of control binding at 10 µM,[7]; [11],40%
same,percent of control binding at 10 µM,[8]; [11],92%
Cn1ncnc1[C@H]1c2n[nH]c(=O)c3cc(F)cc(c23)N[C@@H]1c1ccc(F)cc1 [Talazoparib],percent of control binding at 10 µM,[1]; [12],100%
same,percent of control binding at 10 µM,[2]; [12],92%
same,percent of control binding at 10 µM,[3]; [12],100%
same,percent of control binding at 10 µM,[4]; [12],89%
same,percent of control binding at 10 µM,[5]; [12],100%
same,percent of control binding at 10 µM,[6]; [12],97%
same,percent of control binding at 10 µM,[7]; [12],100%
same,percent of control binding at 10 µM,[8]; [12],99%
